The source of these data is PMC10885410, “Mining and functional characterization of NADPH-cytochrome P450 reductases of the DNJ biosynthetic pathway in mulberry leaves” (BMC Plant Biology, 2024).

By Km is commonly meant the concentration of substrate that gives half-maximal velocity. One may read the Vmax as the top rate of the reaction or transport when substrate is in excess.

In one series the target is T1, MaC3'H-MaCPR2 (Morus alba, UniProt A0A5P9L9Q5).
T1 construct: full ORFs of MaC3'H and MaCPR2 (715 aa) co-expressed from pESC-Trp (GAL1/GAL10) in Saccharomyces cerevisiae INVSc1; with NADPH--cytochrome P450 reductase
T1 sequence (A0A5P9L9Q5 1-509): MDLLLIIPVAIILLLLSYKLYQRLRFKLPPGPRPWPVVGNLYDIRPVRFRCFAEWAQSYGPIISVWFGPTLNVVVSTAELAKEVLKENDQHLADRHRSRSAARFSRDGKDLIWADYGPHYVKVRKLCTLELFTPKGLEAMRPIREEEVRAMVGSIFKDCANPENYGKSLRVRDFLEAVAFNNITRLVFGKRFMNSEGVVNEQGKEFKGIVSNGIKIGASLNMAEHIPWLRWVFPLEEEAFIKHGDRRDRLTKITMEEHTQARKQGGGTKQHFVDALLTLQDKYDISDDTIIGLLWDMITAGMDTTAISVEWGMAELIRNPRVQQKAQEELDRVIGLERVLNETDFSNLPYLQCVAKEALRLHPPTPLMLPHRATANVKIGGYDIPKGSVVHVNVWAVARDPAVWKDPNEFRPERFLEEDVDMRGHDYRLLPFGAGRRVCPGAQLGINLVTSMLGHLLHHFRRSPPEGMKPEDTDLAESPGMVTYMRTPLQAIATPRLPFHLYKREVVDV
In words: yeast feeding, product by HPLC and LC-MS. It counts as cell-based. The conditions noted are these: 100 μM fed to yeast culture, 48 h, 30 °C; needs co-expressed MaCPR2.

Series [1] relates to NC(=O)C1=CN([C@@H]2O[C@H](COP(=O)(O)OP(=O)(O)OC[C@H]3O[C@@H](n4cnc5c(N)ncnc54)[C@H](OP(=O)(O)O)[C@@H]3O)[C@@H](O)[C@H]2O)C=CC1. In words: purified protein. The conditions noted are these: cytochrome c 200 μM, 50 mM Tris-HCl pH 7.4, 0.1 mM EDTA, 25 °C, varied: cofactor.

For the molecule `O=C(/C=C/c1ccc(O)c(O)c1)O[C@@H]1C[C@](O)(C(=O)O)C[C@@H](O)[C@H]1O` [chlorogenic acid], at MaC3'H-MaCPR2, the “yeast feeding, product by HPLC and LC-MS” value was “expected product chlorogenic acid was detected in MaC3'H-MaCPR2/pESC-Trp/INVSCI engineered bacteria”.

Consider `O=C(/C=C/c1ccc(O)cc1)O[C@@H]1C[C@](O)(C(=O)O)C[C@@H](O)[C@H]1O` [3-O-p-coumaroylquinic acid], for which, at MaC3'H-MaCPR2, the “yeast feeding, product by HPLC and LC-MS” value is listed as “transfers electrons to MaC3'H hydroxylase, thus transforming 3-O-p-coumaroylquinic acid into chlorogenic acid”.

As to MaCPR2 (Morus alba), in series [1], the Km stood at 13.93 ± 1.54 µM and the Vmax amounted to 2.43 µmol/min/mg.
